The source of these data is BindingDB's records for patent US11753403 (Pic Therapeutics, 2023).

Each structure is given as a SMILES string.

In this assay the target is T1, Eukaryotic translation initiation factor 4E [28-217] (Homo sapiens, UniProt P06730).
T1 construct: 28-217
The assay is described as follows: Human eIF4E/4G2 Binding Assay. The procedure:
Test compounds (3.43 mM stock in DMSO) were diluted 2-fold in series in DMSO (10 concentration points). Compound solutions (1.2 μl/well) were added into black 384-well polypropylene microplates (Matrix, Thermal Scientific). Twenty-two microliters per well of Assay Buffer (50 mM NaPi, pH 6.5, 50 mM KCl, 1 mM DTT and 0.5 mg/ml gamma globulin) and eight microliters per well of 82.5 nM purified eIF4E in Assay Buffer were added. The samples were incubated at room temperature (20-23° C.) for 4 hours. Biotin labeled 4G2 peptide (Ac-Lys-Gln-Tyr-Asp-Arg-Glu-Phe-Leu-Leu-Asp-Phe-Gln-Phe-Met-Pro-Lys(Aha-Bio)-NH2, 1.75 μM stock in DMSO) was diluted to 0.14 μM in Assay Buffer (without DTT) and 5 μl/well was added. The samples were incubated at room temperature for 20 min. Five microliters per well of 6.4 nM Eu-streptavidin (Eu-SA, Perkin Elmer) and 80 nM Allophycocyanin (APC)-anti His antibody (Columbia Biosciences) in Assay Buffer (without DTT) were then added and the samples were incubated at room temperature for 20 min.

In general, IC50 refers to the concentration that inhibits the measured activity by half. Read a high IC50 as lower potency.

T1 sequence (P06730 28-217): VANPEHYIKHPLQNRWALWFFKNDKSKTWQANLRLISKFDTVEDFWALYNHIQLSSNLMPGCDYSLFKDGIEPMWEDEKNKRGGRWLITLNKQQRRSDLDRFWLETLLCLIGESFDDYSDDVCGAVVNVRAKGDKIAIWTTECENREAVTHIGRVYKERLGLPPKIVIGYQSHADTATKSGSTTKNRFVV

For the compound `CC(C)Cc1sc(N(CCS(N)(=O)=O)Cc2ccccc2)nc1-c1ccc(Cl)c(Cl)c1` [US11753403, Compound I-98], the IC50 was greater than 10 µM.
The figure for `CC(C)Cc1sc(N(CCC(=O)NCCO)Cc2ccccc2)nc1-c1ccc(Cl)c(Cl)c1` [US11753403, Compound I-194] is greater than 10 µM; for `CC(C)Cc1sc(N(CCC(=O)O)Cc2ccccc2)nc1-c1ccc(-c2ccc(F)cc2)c(Cl)c1` [US11753403, Compound I-104] it is less than 1 µM; for `CC(C)Cc1sc(-c2ccc(NC(=O)c3ccccc3)c(C(=O)O)c2)nc1-c1ccc(Cl)c(Cl)c1` [US11753403, Compound I-237] it is less than 1 µM.
The figure for `CC(C)Cc1sc(N2CCN(C(=O)c3cccc(F)c3)C(C(=O)O)C2)nc1-c1ccc(Cl)c(Cl)c1` (stereo not given) [US11753403, Compound I-247] is less than 1 µM; for `CC(C)Cc1sc(N(CCC(=O)NS(=O)(=O)CCCN)Cc2ccccc2)nc1-c1ccc(Cl)c(Cl)c1` [US11753403, Compound I-186] it is greater than 10 µM; for `CC(C)Cc1sc(NCC(Cc2cccc(C(=O)NCCN)c2)C(=O)O)nc1-c1ccc(Cl)c(Cl)c1` (stereo not given) [US11753403, Compound I-204] it is greater than 10 µM.
The figure for `CC(C)Cc1sc(Nc2cccc(C(=O)O)c2)nc1-c1ccc(Cl)c(Cl)c1` [US11753403, Compound I-142] is less than 1 µM; for `O=C(O)CCN(Cc1ccccc1)c1nc(-c2ccc(Cl)c(Cl)c2)c(CN2CCCCC2)s1` [US11753403, Compound I-90] it is greater than 10 µM.
As for `NC(=O)c1sc(N(CCC(=O)O)Cc2ccccc2)nc1-c1ccc(Cl)c(Cl)c1` [US11753403, Compound I-124], the IC50 is greater than 10 µM.
